Key:
[1] = test system: recombinant NL4-3 virus (nef section replaced with Renilla luciferase gene) in MT-2 cells; assay: HIV cell culture assay (antiviral activity, luciferase readout); assay type: cell-based; conditions: Renilla, NL43, MT-2 cells infected for 4-5 days with recombinant NL4-3 Renilla luciferase virus, serial dilutions of compound
How it was run: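 Test compound in serial dilution was present while MT-2 cells were infected for 4–5 days with recombinant NL4-3 virus made in 293T cells. Antiviral activity was quantified as Renilla luciferase activity, read with a live-cell substrate. EC50 came from the median-effect equation.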

[2] = Compound cytotoxicity, XTT-based colorimetric assay; assay type: cell-based; conditions: human, uninfected MT2 cells, day 4, XTT
How it was run: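 Run under the antiviral-assay protocol but without virus. Viability was read on day 4 and CC50 values were derived from the readout.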

SMILES | EC50 [1] | CC50 at 4 day [2]
Cc1ccnc(-c2ccc3c(=O)n(-c4ccc(Cl)c5c(NS(C)(=O)=O)nn(CC(F)(F)F)c45)c([C@H](Cc4cc(F)cc(F)c4)NC(=O)Cn4nc(C(F)F)c5c4C(F)(F)[C@@H]4C[C@H]54)nc3c2)n1 [Example 162, N-((S)-1-(3-(4-chloro-3-(methylsulfonamido)-1-(2,2,2-trifluoroethyl)-1H-indazol-7-yl)-7-(4-methylpyrimidin-2-yl)-4-oxo-3,4-dihydroquinazolin-2-yl)-2-(3,5-difluorophenyl)ethyl)-2-((3bS,4aR)-3-(difluoromethyl)-5,5-difluoro-3b,4,4a,5-tetrahydro-1H-cyclopropa[3,4]cyclopenta[1,2-c]pyrazol-1-yl)acetamide] | 0.059 nM | > 500 nM
CS(=O)(=O)Nc1nn(CC(F)(F)F)c2c(-n3c([C@H](Cc4cc(F)cc(F)c4)NC(=O)Cn4nc(C(F)F)c5c4C(F)(F)[C@@H]4C[C@H]54)nc4cc(-c5ncccn5)ccc4c3=O)ccc(Cl)c12 [Example 163, N-((S)-1-(3-(4-chloro-3-(methylsulfonamido)-1-(2,2,2-trifluoroethyl)-1H-indazol-7-yl)-4-oxo-7-(pyrimidin-2-yl)-3,4-dihydroquinazolin-2-yl)-2-(3,5-difluorophenyl)ethyl)-2-((3bS,4aR)-3-(difluoromethyl)-5,5-difluoro-3b,4,4a,5-tetrahydro-1H-cyclopropa[3,4]cyclopenta[1,2-c]pyrazol-1-yl)acetamide] | 0.046 nM | > 500 nM
Cc1cc(C)nc(-c2ccc3c(=O)n(-c4ccc(Cl)c5c(NS(C)(=O)=O)nn(CC(F)(F)F)c45)c([C@H](Cc4cc(F)cc(F)c4)NC(=O)Cn4nc(C(F)F)c5c4C(F)(F)[C@@H]4C[C@H]54)nc3c2)n1 [Example 164, N-((S)-1-(3-(4-chloro-3-(methylsulfonamido)-1-(2,2,2-trifluoroethyl)-1H-indazol-7-yl)-7-(4,6-dimethylpyrimidin-2-yl)-4-oxo-3,4-dihydroquinazolin-2-yl)-2-(3,5-difluorophenyl)ethyl)-2-((3bS,4aR)-3-(difluoromethyl)-5,5-difluoro-3b,4,4a,5-tetrahydro-1H-cyclopropa[3,4]cyclopenta[1,2-c]pyrazol-1-yl)acetamide] | 0.096 nM | > 500 nM
Cc1nccnc1-c1ccc2c(=O)n(-c3ccc(Cl)c4c(NS(C)(=O)=O)nn(CC(F)(F)F)c34)c([C@H](Cc3cc(F)cc(F)c3)NC(=O)Cn3nc(C(F)F)c4c3C(F)(F)[C@@H]3C[C@H]43)nc2c1 [Example 165, N-((S)-1-(3-(4-chloro-3-(methylsulfonamido)-1-(2,2,2-trifluoroethyl)-1H-indazol-7-yl)-7-(3-methylpyrazin-2-yl)-4-oxo-3,4-dihydroquinazolin-2-yl)-2-(3,5-difluorophenyl)ethyl)-2-((3bS,4aR)-3-(difluoromethyl)-5,5-difluoro-3b,4,4a,5-tetrahydro-1H-cyclopropa[3,4]cyclopenta[1,2-c]pyrazol-1-yl)acetamide] | 0.05 nM | > 500 nM
Cc1ncc(-c2ccc3c(=O)n(-c4ccc(Cl)c5c(NS(C)(=O)=O)nn(CC(F)(F)F)c45)c([C@H](Cc4cc(F)cc(F)c4)NC(=O)Cn4nc(C(F)F)c5c4C(F)(F)[C@@H]4C[C@H]54)nc3c2)cn1 [Example 166, N-((S)-1-(3-(4-chloro-3-(methylsulfonamido)-1-(2,2,2-trifluoroethyl)-1H-indazol-7-yl)-7-(2-methylpyrimidin-5-yl)-4-oxo-3,4-dihydroquinazolin-2-yl)-2-(3,5-difluorophenyl)ethyl)-2-((3bS,4aR)-3-(difluoromethyl)-5,5-difluoro-3b,4,4a,5-tetrahydro-1H-cyclopropa[3,4]cyclopenta[1,2-c]pyrazol-1-yl)acetamide] | 0.037 nM | > 500 nM
CS(=O)(=O)Nc1nn(CC(F)(F)F)c2c(-n3c([C@H](Cc4cc(F)cc(F)c4)NC(=O)Cn4nc(C(F)F)c5c4C(F)(F)[C@@H]4C[C@H]54)nc4cc(-c5ccccc5S(C)(=O)=O)ccc4c3=O)ccc(Cl)c12 [Example 167, N-((S)-1-(3-(4-chloro-3-(methylsulfonamido)-1-(2,2,2-trifluoroethyl)-1H-indazol-7-yl)-7-(2-(methylsulfonyl)phenyl)-4-oxo-3,4-dihydroquinazolin-2-yl)-2-(3,5-difluorophenyl)ethyl)-2-((3bS,4aR)-3-(difluoromethyl)-5,5-difluoro-3b,4,4a,5-tetrahydro-1H-cyclopropa[3,4]cyclopenta[1,2-c]pyrazol-1-yl)acetamide] | 0.08 nM | > 500 nM
Cn1nc(NS(C)(=O)=O)c2c(Cl)ccc(-n3c([C@H](Cc4cc(F)cc(F)c4)NC(=O)Cn4nc(C(F)F)c5c4C(F)(F)[C@@H]4C[C@H]54)nc4cc(-c5ccc(F)c(F)c5F)ccc4c3=O)c21 [Example 168, N-((S)-1-(3-(4-chloro-1-methyl-3-(methylsulfonamido)-1H-indazol-7-yl)-4-oxo-7-(2,3,4-trifluorophenyl)-3,4-dihydroquinazolin-2-yl)-2-(3,5-difluorophenyl)ethyl)-2-((3bS,4aR)-3-(difluoromethyl)-5,5-difluoro-3b,4,4a,5-tetrahydro-1H-cyclopropa[3,4]cyclopenta[1,2-c]pyrazol-1-yl)acetamide] | 0.7 nM | > 500 nM
Cn1nc(NS(C)(=O)=O)c2c(Cl)ccc(-n3c([C@H](Cc4cc(F)cc(F)c4)NC(=O)Cn4nc(C(F)F)c5c4C(F)(F)[C@@H]4C[C@H]54)nc4cc(-c5ccc(F)c(C#N)c5F)ccc4c3=O)c21 [Example 170, N-((S)-1-(3-(4-chloro-1-methyl-3-(methylsulfonamido)-1H-indazol-7-yl)-7-(3-cyano-2,4-difluorophenyl)-4-oxo-3,4-dihydroquinazolin-2-yl)-2-(3,5-difluorophenyl)ethyl)-2-((3bS,4aR)-3-(difluoromethyl)-5,5-difluoro-3b,4,4a,5-tetrahydro-1H-cyclopropa[3,4]cyclopenta[1,2-c]pyrazol-1-yl)acetamide] | 0.58 nM | > 500 nM
Cn1nc(NS(C)(=O)=O)c2c(Cl)ccc(-n3c([C@H](Cc4cc(F)cc(F)c4)NC(=O)Cn4nc(C(F)F)c5c4C(F)(F)[C@@H]4C[C@H]54)nc4cc(-c5c(F)cc(F)cc5F)ccc4c3=O)c21 [Example 172, N-((S)-1-(3-(4-chloro-1-methyl-3-(methylsulfonamido)-1H-indazol-7-yl)-4-oxo-7-(2,4,6-trifluorophenyl)-3,4-dihydroquinazolin-2-yl)-2-(3,5-difluorophenyl)ethyl)-2-((3bS,4aR)-3-(difluoromethyl)-5,5-difluoro-3b,4,4a,5-tetrahydro-1H-cyclopropa[3,4]cyclopenta[1,2-c]pyrazol-1-yl)acetamide] | 0.25 nM | > 500 nM
Cn1nc(NS(C)(=O)=O)c2c(Cl)ccc(-n3c([C@H](Cc4cc(F)cc(F)c4)NC(=O)Cn4nc(C(F)F)c5c4C(F)(F)[C@@H]4C[C@H]54)nc4cc(-c5ccc(F)c(F)c5)ccc4c3=O)c21 [Example 173, N-((S)-1-(3-(4-chloro-1-methyl-3-(methylsulfonamido)-1H-indazol-7-yl)-7-(3,4-difluorophenyl)-4-oxo-3,4-dihydroquinazolin-2-yl)-2-(3,5-difluorophenyl)ethyl)-2-((3bS,4aR)-3-(difluoromethyl)-5,5-difluoro-3b,4,4a,5-tetrahydro-1H-cyclopropa[3,4]cyclopenta[1,2-c]pyrazol-1-yl)acetamide] | 0.68 nM | > 500 nM
Cc1ncc(-c2ccc3c(=O)n(-c4ccc(Cl)c5c(NS(C)(=O)=O)nn(CC(F)F)c45)c([C@H](Cc4cc(F)cc(F)c4)NC(=O)Cn4nc(C(F)F)c5c4C(F)(F)[C@@H]4C[C@H]54)nc3c2)cn1 [Example 174, N-((S)-1-(3-(4-chloro-1-(2,2-difluoroethyl)-3-(methylsulfonamido)-1H-indazol-7-yl)-7-(2-methylpyrimidin-5-yl)-4-oxo-3,4-dihydroquinazolin-2-yl)-2-(3,5-difluorophenyl)ethyl)-2-((3bS,4aR)-3-(difluoromethyl)-5,5-difluoro-3b,4,4a,5-tetrahydro-1H-cyclopropa[3,4]cyclopenta[1,2-c]pyrazol-1-yl)acetamide] | 0.033 nM | > 500 nM
Cc1cccc(-c2ccc3c(=O)n(-c4ccc(Cl)c5c(NS(C)(=O)=O)nn(CC(F)F)c45)c([C@H](Cc4cc(F)cc(F)c4)NC(=O)Cn4nc(C(F)F)c5c4C(F)(F)[C@@H]4C[C@H]54)nc3c2)n1 [Example 175, N-((S)-1-(3-(4-chloro-1-(2,2-difluoroethyl)-3-(methylsulfonamido)-1H-indazol-7-yl)-7-(6-methylpyridin-2-yl)-4-oxo-3,4-dihydroquinazolin-2-yl)-2-(3,5-difluorophenyl)ethyl)-2-((3bS,4aR)-3-(difluoromethyl)-5,5-difluoro-3b,4,4a,5-tetrahydro-1H-cyclopropa[3,4]cyclopenta[1,2-c]pyrazol-1-yl)acetamide] | 0.08 nM | > 500 nM
CS(=O)(=O)Nc1nn(CC(F)F)c2c(-n3c([C@H](Cc4cc(F)cc(F)c4)NC(=O)Cn4nc(C(F)F)c5c4C(F)(F)[C@@H]4C[C@H]54)nc4cc(-c5ccccc5S(C)(=O)=O)ccc4c3=O)ccc(Cl)c12 [Example 176, N-((S)-1-(3-(4-chloro-1-(2,2-difluoroethyl)-3-(methylsulfonamido)-1H-indazol-7-yl)-7-(2-(methylsulfonyl)phenyl)-4-oxo-3,4-dihydroquinazolin-2-yl)-2-(3,5-difluorophenyl)ethyl)-2-((3bS,4aR)-3-(difluoromethyl)-5,5-difluoro-3b,4,4a,5-tetrahydro-1H-cyclopropa[3,4]cyclopenta[1,2-c]pyrazol-1-yl)acetamide] | 0.066 nM | > 500 nM
